{
  "source": "patent US9012651B2",
  "about": "“TRPV3 modulators” (AbbVie Inc., priority 2011, dated 2015)",
  "data": [
    {"target": "human TRPV3 receptors (Homo sapiens (Human), UniProt Q8NET8)", "sequence (Q8NET8 whole entry)": "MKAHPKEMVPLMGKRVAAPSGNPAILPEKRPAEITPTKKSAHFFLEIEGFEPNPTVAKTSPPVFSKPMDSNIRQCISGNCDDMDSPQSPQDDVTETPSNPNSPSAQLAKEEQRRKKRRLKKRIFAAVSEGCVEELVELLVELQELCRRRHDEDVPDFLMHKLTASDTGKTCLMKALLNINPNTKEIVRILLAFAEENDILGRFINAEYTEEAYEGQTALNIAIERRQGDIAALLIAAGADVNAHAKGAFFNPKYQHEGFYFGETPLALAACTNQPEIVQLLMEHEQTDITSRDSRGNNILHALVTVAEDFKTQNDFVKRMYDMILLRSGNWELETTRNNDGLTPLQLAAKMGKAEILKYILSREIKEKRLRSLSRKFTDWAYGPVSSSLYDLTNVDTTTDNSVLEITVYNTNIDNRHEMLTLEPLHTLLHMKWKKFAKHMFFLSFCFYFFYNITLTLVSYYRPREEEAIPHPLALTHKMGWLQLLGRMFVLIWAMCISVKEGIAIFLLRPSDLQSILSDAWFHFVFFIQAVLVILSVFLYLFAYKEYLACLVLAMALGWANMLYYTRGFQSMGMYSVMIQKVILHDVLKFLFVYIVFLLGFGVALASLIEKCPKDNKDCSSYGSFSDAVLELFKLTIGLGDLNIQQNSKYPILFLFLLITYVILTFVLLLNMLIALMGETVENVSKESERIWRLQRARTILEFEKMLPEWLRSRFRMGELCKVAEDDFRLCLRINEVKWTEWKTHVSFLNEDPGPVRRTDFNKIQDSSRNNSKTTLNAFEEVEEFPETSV", "assay": "Calcium flux assay (FLIPR TETRA), inhibition of the 2-APB response", "assay_type": "cell-based", "conditions": "recombinant HEK293 cells stably expressing TRPV3, Calcium-4 dye, 2-APB at its EC80", "procedure": "(i) In Vitro Methods-Calcium Flux Assays:\nExperiments were conducted using the FLIPR^TETRA®. On the day prior to the experiment, recombinant HEK293 cells that stably express human and mouse TRPV3 were removed from tissue culture flasks and plated in growth medium at 20,000 cells/well into black-walled clear-bottom 384-well Biocoat™ poly-D-lysine assay plates (BD Biosciences, Bedford, Mass.) using a Multidrop® dispenser (ThermoScientific, Waltham, Mass.). […] Cells were incubated for 90-120 minutes in the dark. Compounds were dissolved in DMSO to prepare a 10 mM stock solution. The intensity of the fluorescence was captured and digitally transferred to an interfaced PC. The peak increase in fluorescence over baseline (relative fluorescence units) was calculated and expressed as the percentage of the maximal 2-APB (2-aminoethoxyldiphenyl borate) response (in the absence of compound).", "units": {"IC50": "µM"}, "values": [
      {"molecule": "CC[C@H](C)[C@@H](CO)NCc1cccc(-c2ccc(C(F)(F)F)cc2)n1", "note": "[Example 2, (2S,3S)-3-methyl-2-[({6-[4-(trifluoromethyl)phenyl]pyridin-2-yl}methyl)amino]pentan-1-ol]", "IC50": 3.81},
      {"molecule": "CC(C)[C@@H](CO)NCc1cccc(-c2ccc(C(F)(F)F)cc2)n1", "note": "[Example 3, (2S)-3-methyl-2-[({6-[4-(trifluoromethyl)phenyl]pyridin-2-yl}methyl)amino]butan-1-ol]", "IC50": 9.38},
      {"molecule": "CC(C)(CO)CNCc1cccc(-c2ccc(C(F)(F)F)cc2)n1", "note": "[Example 8, 2,2-dimethyl-3-[({6-[4-(trifluoromethyl)phenyl]pyridin-2-yl}methyl)amino]propan-1-ol]", "IC50": 2.6},
      {"molecule": "OC[C@@H]1[C@@H]2CC[C@@H](C2)[C@@H]1NCc1cccc(-c2ccc(C(F)(F)F)cc2)n1", "note": "[Example 9, {(1R,2R,3S,4S)-3-[({6-[4-(trifluoromethyl)phenyl]pyridin-2-yl}methyl)amino]bicyclo[2.2.1]heptan-2-yl}methanol]", "IC50": 3.65},
      {"molecule": "CC(C)[C@H](CO)NCc1cccc(N2CCCC2)n1", "note": "[Example 10, (2R)-3-methyl-2-({[6-(pyrrolidin-1-yl)pyridin-2-yl]methyl}amino)butan-1-ol]", "IC50": 3.79},
      {"molecule": "CC(C)[C@H](CO)NCc1cccc(N2CCCCC2)n1", "note": "[Example 11, (2R)-3-methyl-2-({[6-(piperidin-1-yl)pyridin-2-yl]methyl}amino)butan-1-ol]", "IC50": 1.94},
      {"molecule": "CC(C)[C@H](CO)NCc1cccc(OCc2ccccc2)n1", "note": "[Example 12, (2R)-2-({[6-(benzyloxy)pyridin-2-yl]methyl}amino)-3-methylbutan-1-ol]", "IC50": 0.91},
      {"molecule": "CC(C)[C@H](CO)NCc1nc(-c2ccccc2F)ccc1F", "note": "[Example 13, (2R)-2-({[3-fluoro-6-(2-fluorophenyl)pyridin-2-yl]methyl}amino)-3-methylbutan-1-ol]", "IC50": 1.12},
      {"molecule": "CC(C)[C@H](CO)NCc1nc(-c2cccc(F)c2)ccc1F", "note": "[Example 14, (2R)-2-({[3-fluoro-6-(3-fluorophenyl)pyridin-2-yl]methyl}amino)-3-methylbutan-1-ol]", "IC50": 0.81},
      {"molecule": "CC(C)[C@H](CO)NCc1nc(-c2cccc(Cl)c2)ccc1F", "note": "[Example 15, (2R)-2-({[6-(3-chlorophenyl)-3-fluoropyridin-2-yl]methyl}amino)-3-methylbutan-1-ol]", "IC50": 1.84},
      {"molecule": "CC(C)[C@H](CO)NCc1nc(-c2cccc(C(F)(F)F)c2)ccc1F", "note": "[Example 16, (2R)-2-[({3-fluoro-6-[3-(trifluoromethyl)phenyl]pyridin-2-yl}methyl)amino]-3-methylbutan-1-ol]", "IC50": 1.11},
      {"molecule": "CC(C)[C@H](CO)NCc1nc(-c2ccc(C(F)(F)F)cc2)ccc1F", "note": "[Example 17, (2R)-2-[({3-fluoro-6-[4-(trifluoromethyl)phenyl]pyridin-2-yl}methyl)amino]-3-methylbutan-1-ol]", "IC50": 0.2},
      {"molecule": "CC(C)[C@H](CO)NCc1nc(-c2cccc(OC(F)(F)F)c2)ccc1F", "note": "[Example 18, (2R)-2-[({3-fluoro-6-[3-(trifluoromethoxy)phenyl]pyridin-2-yl}methyl)amino]-3-methylbutan-1-ol]", "IC50": 1.12},
      {"molecule": "CC(C)[C@H](CO)NCc1nc(-c2ccc(OC(F)(F)F)cc2)ccc1F", "note": "[Example 19, (2R)-2-[({3-fluoro-6-[4-(trifluoromethoxy)phenyl]pyridin-2-yl}methyl)amino]-3-methylbutan-1-ol]", "IC50": 0.23},
      {"molecule": "CC(C)[C@H](CO)NCc1nc(-c2ccc(Cl)c(Cl)c2)ccc1F", "note": "[Example 20, (2R)-2-({[6-(3,4-dichlorophenyl)-3-fluoropyridin-2-yl]methyl}amino)-3-methylbutan-1-ol]", "IC50": 1.39},
      {"molecule": "CC(C)[C@H](CO)NCc1nc(-c2cc(Cl)cc(Cl)c2)ccc1F", "note": "[Example 21, (2R)-2-({[6-(3,5-dichlorophenyl)-3-fluoropyridin-2-yl]methyl}amino)-3-methylbutan-1-ol]", "IC50": 3.3},
      {"molecule": "CC(C)[C@H](CO)NCc1nc(-c2cc(C(F)(F)F)cc(C(F)(F)F)c2)ccc1F", "note": "[Example 22, (2R)-2-[({6-[3,5-bis(trifluoromethyl)phenyl]-3-fluoropyridin-2-yl}methyl)amino]-3-methylbutan-1-ol]", "IC50": 1.28},
      {"molecule": "CC(C)Oc1ccc(F)c(-c2ccc(F)c(CN[C@@H](CO)C(C)C)n2)c1", "note": "[Example 23, (2R)-2-[({3-fluoro-6-[2-fluoro-5-(propan-2-yloxy)phenyl]pyridin-2-yl}methyl)amino]-3-methylbutan-1-ol]", "IC50": 0.7},
      {"molecule": "CC(C)Oc1cccc(-c2ccc(F)c(CN[C@@H](CO)C(C)C)n2)c1", "note": "[Example 24, (2R)-2-[({3-fluoro-6-[3-(propan-2-yloxy)phenyl]pyridin-2-yl}methyl)amino]-3-methylbutan-1-ol]", "IC50": 0.75},
      {"molecule": "CC(C)Oc1ccc(-c2ccc(F)c(CN[C@@H](CO)C(C)C)n2)cc1F", "note": "[Example 25, (2R)-2-[({3-fluoro-6-[3-fluoro-4-(propan-2-yloxy)phenyl]pyridin-2-yl}methyl)amino]-3-methylbutan-1-ol]", "IC50": 0.65},
      {"molecule": "CC(C)[C@H](CO)NCc1cccc(OC(C)(C)C)n1", "note": "[Example 26]", "IC50": 4.06},
      {"molecule": "CC(C)[C@H](CO)NCc1nc(-c2ccc(F)cc2)ccc1F", "note": "[Example 27, (2R)-2-({[3-fluoro-6-(4-fluorophenyl)pyridin-2-yl]methyl}amino)-3-methylbutan-1-ol]", "IC50": 0.32},
      {"molecule": "OC[C@H](NCc1nc(-c2ccc(C(F)(F)F)cc2)ccc1F)C1CC1", "note": "[Example 29, (2R)-2-cyclopropyl-2-[({3-fluoro-6-[4-(trifluoromethyl)phenyl]pyridin-2-yl}methyl)amino]ethano 1]", "IC50": 0.41},
      {"molecule": "CC(C)[C@@H](CO)NCc1nc(-c2ccc(C(F)(F)F)cc2)ccc1F", "note": "[Example 30, (2S)-2-[({3-fluoro-6-[4-(trifluoromethyl)phenyl]pyridin-2-yl}methyl)amino]-3-methylbutan-1-ol]", "IC50": "> 20"},
      {"molecule": "CC(C)[C@H](CO)NCc1nc(-c2ccnc(C(F)(F)F)c2)ccc1F", "note": "[Example 31, (2R)-2-({[5-fluoro-2′-(trifluoromethyl)-2,4′-bipyridin-6-yl]methyl}amino)-3-methylbutan-1-ol]", "IC50": 2.19},
      {"molecule": "CC(C)[C@H](CO)NCc1nccc(-c2ccc(F)cc2)n1", "note": "[Example 32, (2R)-2-({[4-(4-fluorophenyl)pyrimidin-2-yl]methyl}amino)-3-methylbutan-1-ol]", "IC50": 12},
      {"molecule": "CC(C)[C@H](CO)NCc1ccnc(-c2ccc(Cl)cc2)n1", "note": "[Example 34, (2R)-2-({[2-(4-chlorophenyl)pyrimidin-4-yl]methyl}amino)-3-methylbutan-1-ol]", "IC50": 1.39},
      {"molecule": "CC(C)[C@@H](CO)NCc1nc(-c2ccc(C(F)(F)F)nc2)ccc1F", "note": "[Example 35, (2S)-2-({[5-fluoro-6′-(trifluoromethyl)-2,3′-bipyridin-6-yl]methyl}amino)-3-methylbutan-1-ol]", "IC50": "> 20"},
      {"molecule": "CC(C)[C@H](CO)NCc1nc(-c2ccc(F)cn2)ccc1F", "note": "[Example 36, (2R)-2-{[(5,5′-difluoro-2,2′-bipyridin-6-yl)methyl]amino}-3-methylbutan-1-ol]", "IC50": 0.95},
      {"molecule": "CC(=O)c1cccc(-c2ccc(F)c(CN[C@@H](CO)C(C)C)n2)c1F", "note": "[Example 37, 1-{2-fluoro-3-[5-fluoro-6-({[(2R)-1-hydroxy-3-methylbutan-2-yl]amino}methyl)pyridin-2-yl]phenyl}ethanone]", "IC50": 1.19},
      {"molecule": "CC(C)[C@H](CO)NCc1nc(-c2ccc(Cl)nc2)ccc1F", "note": "[Example 38, (2R)-2-{[(6′-chloro-5-fluoro-2,3′-bipyridin-6-yl)methyl]amino}-3-methylbutan-1-ol]", "IC50": 2.85},
      {"molecule": "CC(C)[C@H](CO)NCc1nc(-c2cccc(S(=O)(=O)N(C)C)c2)ccc1F", "note": "[Example 39, 3-[5-fluoro-6-({[(2R)-1-hydroxy-3-methylbutan-2-yl]amino}methyl)pyridin-2-yl]-N,N-dimethylbenzenesulfonamide]", "IC50": 1.7},
      {"molecule": "CC(=O)c1cccc(-c2ccc(F)c(CN[C@@H](CO)C(C)C)n2)c1", "note": "[Example 40, 1-{3-[5-fluoro-6-({[(2R)-1-hydroxy-3-methylbutan-2-yl]amino}methyl)pyridin-2-yl]phenyl}ethanone]", "IC50": 1.4},
      {"molecule": "CCN(CC)C(=O)c1cccc(-c2ccc(F)c(CN[C@@H](CO)C(C)C)n2)c1", "note": "[Example 41, N,N-diethyl-3-[5-fluoro-6-({[(2R)-1-hydroxy-3-methylbutan-2-yl]amino}methyl)pyridin-2-yl]benzamide]", "IC50": 2.97},
      {"molecule": "CC(C)[C@H](CO)NCc1nc(-c2ccc(Cl)cc2)ccc1F", "note": "[Example 42, (2R)-2-({[6-(4-chlorophenyl)-3-fluoropyridin-2-yl]methyl}amino)-3-methylbutan-1-ol]", "IC50": 0.39},
      {"molecule": "CC(C)[C@H](CO)NCc1nc(-c2cccc(N(C)C)c2)ccc1F", "note": "[Example 43, (2R)-2-[({6-[3-(dimethylamino)phenyl]-3-fluoropyridin-2-yl}methyl)amino]-3-methylbutan-1-ol]", "IC50": 0.46},
      {"molecule": "CC(C)[C@H](CO)NCc1nc(-c2cccc(N3CCOCC3)c2)ccc1F", "note": "[Example 44, (2R)-2-[({3-fluoro-6-[3-(morpholin-4-yl)phenyl]pyridin-2-yl}methyl)amino]-3-methylbutan-1-ol]", "IC50": 0.83},
      {"molecule": "CC(C)[C@H](CO)NCc1nc(-c2cccc(C(=O)N3CCCCC3)c2)ccc1F", "note": "[Example 45, {3-[5-fluoro-6-({[(2R)-1-hydroxy-3-methylbutan-2-yl]amino}methyl)pyridin-2-yl]phenyl}(piperidin-1-yl)methanone]", "IC50": 3.47},
      {"molecule": "CC1CCN(C(=O)c2cccc(-c3ccc(F)c(CN[C@@H](CO)C(C)C)n3)c2)CC1", "note": "[Example 46, {3-[5-fluoro-6-({[(2R)-1-hydroxy-3-methylbutan-2-yl]amino}methyl)pyridin-2-yl]phenyl}(4-methylpiperidin-1-yl)methanone]", "IC50": 2.02}
    ]}
  ]
}
